# From ChEMBL document CHEMBL1122475, “Antidepressant activity of 5-aryl-2,3,5,6-tetrahydroimidazo[2,1-a]isoquinolin-5-ols” (1983)
# Active and inactive are the calls of the source. The calls are words filed in the database; no cut-off is given here.
# How the values were obtained:
# [1] = test system: Felis catus; assay: Compound tested to induce facilitation of monosynaptic spikes in spinal ventral root by stimulation of the dorsal root (DR-VR) after iv administration in cats; 0.3-1.0; format: functional
# [2] = test system: Mus musculus; assay: Dose at which 50% convulsions occurred in mice (ip); format: functional
# [3] = test system: Mus musculus; assay: Dose required to induce hyperactivity in mice (ip); format: functional
# [4] = test system: Mus musculus; assay: Dose required to induce hypersensitivity in mice (ip); format: functional
# [5] = test system: Mus musculus; assay: Minimal dose required to cause piloerection in mice after ip administration; format: functional
# [6] = test system: Mus musculus; assay: Minimal dose required to induce hyperaesthesia in mice (ip); format: functional
# [7] = test system: Mus musculus; assay: Minimal dose required to induce in mice exophthalmus (ip); format: functional
# [8] = test system: Mus musculus; assay: Minimal dose required to induce in mice straub tail (ip); format: functional
# [9] = test system: Mus musculus; assay: Inhibition of reserpine (5 mg/kg i.p.) induced hypothermia in mice 2 hr after i.p. administration.; format: functional; details: ip
# [10] = test system: Mus musculus; assay: Lethal dose by i.p. administration.; format: functional; details: ip
# [11] = test system: Mus musculus; assay: Inhibition of reserpine (5 mg/kg i.p.) induced hypothermia in mice 4 hr after i.p. administration.; format: functional; details: ip
# [12] = test system: Mus musculus; assay: Dose required to induce hypersensitivity in mice (ip); weak active at a dose of 12.5 mg/kg; format: functional, organism-based; set-up: dose 12.5 mg/kg
# [13] = test system: Mus musculus; assay: Minimal dose required to cause aggressiveness in mice after ip administration; format: functional
# [14] = test system: Mus musculus; assay: Minimal dose required to cause piloerection in mice after ip administration; not active at a dose of 12.5 mg/kg; format: functional, organism-based; set-up: dose 12.5 mg/kg
# [15] = test system: Felis catus; assay: Compound tested to induce facilitation of monosynaptic spikes in spinal ventral root by stimulation of the dorsal root (DR-VR) after iv administration in cats; format: functional
# [16] = test system: Mus musculus; assay: Dose required to induce hypersensitivity in mice (ip); not active at a dose of 25.0 mg/kg; format: functional, organism-based; set-up: dose 25 mg/kg
# [17] = test system: Mus musculus; assay: Minimal dose required to cause piloerection in mice after ip administration; not active at a dose of 25.0 mg/kg; format: functional, organism-based; set-up: dose 25 mg/kg
# [18] = test system: Mus musculus; assay: Dose required to induce hyperactivity in mice (ip); not active at a dose of 50.0 mg/kg; format: functional, organism-based; set-up: dose 50 mg/kg
# [19] = test system: Mus musculus; assay: Dose required to induce hypersensitivity in mice (ip); not active at a dose of 50.0 mg/kg; format: functional, organism-based; set-up: dose 50 mg/kg
# [20] = test system: Mus musculus; assay: Minimal dose required to cause aggressiveness in mice after ip administration; not active at a dose of 50.0 mg/kg; format: functional, organism-based; set-up: dose 50 mg/kg
# [21] = test system: Mus musculus; assay: Minimal dose required to cause piloerection in mice after ip administration; not active at a dose of 50.0 mg/kg; format: functional, organism-based; set-up: dose 50 mg/kg
# [22] = test system: Mus musculus; assay: Minimal dose required to induce hyperaesthesia in mice (ip); not active at a dose of 50.0 mg/kg; format: functional, organism-based; set-up: dose 50 mg/kg
# [23] = test system: Mus musculus; assay: Minimal dose required to induce in mice exophthalmus (ip); not active at a dose of 50.0 mg/kg; format: functional, organism-based; set-up: dose 50 mg/kg
# [24] = test system: Mus musculus; assay: Minimal dose required to induce in mice straub tail (ip); not active at a dose of 50.0 mg/kg; format: functional, organism-based; set-up: dose 50 mg/kg
# [25] = test system: Mus musculus; assay: Dose required to induce hyperactivity in mice (ip); not active at a dose of 12.5 mg/kg; format: functional, organism-based; set-up: dose 12.5 mg/kg
# [26] = test system: Mus musculus; assay: Minimal dose required to cause aggressiveness in mice after ip administration; not active at a dose of 12.5 mg/kg; format: functional, organism-based; set-up: dose 12.5 mg/kg
# [27] = test system: Mus musculus; assay: Dose required to induce hypersensitivity in mice (ip); not active at 12.5 mg/kg; format: functional, organism-based; set-up: dose 12.5 mg/kg
# [28] = test system: Mus musculus; assay: Minimal dose required to cause aggressiveness in mice after ip administration; not active at 12.5 mg/kg; format: functional, organism-based; set-up: dose 12.5 mg/kg
# [29] = test system: Mus musculus; assay: Minimal dose required to cause piloerection in mice after ip; not active at 12.5 mg/kg; format: functional, organism-based; set-up: dose 12.5 mg/kg
# [30] = test system: Mus musculus; assay: Minimal dose required to induce in mice exophthalmus (ip); not active at 12.5 mg/kg at 12.5 mg/kg; format: functional, organism-based
# [31] = test system: Mus musculus; assay: Minimal dose required to induce in mice straub tail (ip); not active at 12.5 mg/kg at 12.5 mg/kg; format: functional, organism-based
compound,measurement,setting,value
OC1(c2ccc(F)cc2)Cc2ccccc2C2=NCCN21 (stereo not given),Activity,[1],0.3 mg/kg
same,CD50,[2],75 mg/kg
same,ED50,[3],25 mg/kg
same,ED50,[4],25 mg/kg
same,MD,[5],18.8 mg/kg
same,MD,[6],18.8 mg/kg
same,MD,[7],9.4 mg/kg
same,MD,[8],9.4 mg/kg
same,ED50,[9],0.06 mg/kg
same,LD50,[10],76.9 mg/kg
same,ED50,[11],10 mg/kg
OC1(c2cccc(F)c2)Cc2ccccc2C2=NCCN21 (stereo not given),ED50,[3],12.5 mg/kg
same,ED50,[12],Weak
same,MD,[13],9.4 mg/kg
same,MD,[14],inactive
same,MD,[6],9.4 mg/kg
same,MD,[7],9.4 mg/kg
same,MD,[8],9.4 mg/kg
same,ED50,[9],0.7 mg/kg
same,LD50,[10],21 mg/kg
same,ED50,[11],5.2 mg/kg
OC1(c2ccc(Cl)cc2)Cc2ccccc2C2=NCCN21 (stereo not given),Activity,[15],>1 mg/kg
same,CD50,[2],37.5 mg/kg
same,ED50,[3],25 mg/kg
same,ED50,[16],inactive
same,MD,[17],inactive
same,MD,[6],37.5 mg/kg
same,MD,[7],18.8 mg/kg
same,MD,[8],18.8 mg/kg
same,ED50,[9],0.025 mg/kg
same,LD50,[10],75 mg/kg
same,ED50,[11],6.4 mg/kg
OC1(c2ccc(Cl)cc2Cl)Cc2ccccc2C2=NCCN21 (stereo not given),Activity,[15],>3 mg/kg
same,CD50,[2],75 mg/kg
same,ED50,[18],inactive
same,ED50,[19],inactive
same,MD,[20],inactive
same,MD,[21],inactive
same,MD,[22],inactive
same,MD,[23],inactive
same,MD,[24],inactive
same,ED50,[9],5.4 mg/kg
same,LD50,[10],81.3 mg/kg
same,ED50,[11],> 25.6 mg/kg
COc1ccc(C2(O)Cc3ccccc3C3=NCCN32)cc1 (stereo not given),CD50,[2],37.5 mg/kg
same,ED50,[18],inactive
same,ED50,[4],50 mg/kg
same,MD,[20],inactive
same,MD,[5],37.5 mg/kg
same,MD,[6],37.5 mg/kg
same,MD,[7],18.8 mg/kg
same,MD,[8],18.8 mg/kg
same,ED50,[9],8.4 mg/kg
same,LD50,[10],138 mg/kg
same,ED50,[11],25.6 mg/kg
OC1(c2ccc3c(c2)OCO3)Cc2ccccc2C2=NCCN21 (stereo not given),CD50,[2],18.8 mg/kg
same,ED50,[25],inactive
same,ED50,[4],12.5 mg/kg
same,MD,[26],inactive
same,MD,[5],9.4 mg/kg
same,MD,[6],4.7 mg/kg
same,MD,[7],4.7 mg/kg
same,MD,[8],4.7 mg/kg
same,ED50,[9],0.1 mg/kg
same,LD50,[10],10.2 mg/kg
same,ED50,[11],0.5 mg/kg
OC1(c2ccccc2)Cc2ccccc2C2=NCCN21 (stereo not given),ED50,[3],12.5 mg/kg
same,ED50,[27],inactive
same,MD,[28],inactive
same,MD,[29],inactive
same,MD,[6],9.4 mg/kg
same,MD,[30],inactive
same,MD,[31],inactive
same,ED50,[9],5 mg/kg
same,LD50,[10],37.5 mg/kg
same,ED50,[11],> 9.4 mg/kg
OC1(c2cccc(C(F)(F)F)c2)Cc2ccccc2C2=NCCN21 (stereo not given),Activity,[1],0.3 mg/kg
same,CD50,[2],75 mg/kg
same,ED50,[18],inactive
same,ED50,[19],inactive
same,MD,[20],inactive
same,MD,[5],37.5 mg/kg
same,MD,[6],37.5 mg/kg
same,MD,[7],37.5 mg/kg
same,MD,[24],inactive
same,ED50,[9],1.9 mg/kg
same,LD50,[10],50 mg/kg
same,ED50,[11],> 25.6 mg/kg
OC1(c2ccc(Cl)cc2)c2ccccc2C2=NCCN21 (stereo not given) [MAZINDOL],ED50,[9],0.05 mg/kg
same,ED50,[11],0.12 mg/kg
